Test results published in patent US20210378993A1 (Nacuity Pharmaceuticals, Inc., priority 2020, published 2021).
Where “and” joins values, the source holds several entries; their conditions need not be identical. Equal values may be shown once.

Legend:
rabbit eyes = assay: Ophthalmic tolerability, daily Draize scores after topical ocular administration; format: in vivo; settings: rabbits
Method: To simulate topical ocular exposure to an ophthalmic insert containing AGENT, prototype ophthalmic formulations were prepared containing either 1% NPI-001, 1% diNACA, 1% NAC or vehicle and tested to evaluate ocular tolerability. Three rabbits per group were administered 1% NPI-001, 1% di-NAC, 1% NAC in a prototype vehicle, via bilateral topical administration four times a day for 6 days, and once on Day 7.

[1] = humans, oral dose of 600 mg; cited from earlier work
[2] = 1% in prototype vehicle, bilateral topical four times a day, Day 1, per animal and eye
[3] = 1% in prototype vehicle, bilateral topical four times a day, Day 2, per animal and eye
[4] = 1% in prototype vehicle, bilateral topical four times a day, Day 3, per animal and eye
[5] = 1% in prototype vehicle, bilateral topical four times a day, Day 4, per animal and eye
[6] = 1% in prototype vehicle, bilateral topical four times a day, Day 5, per animal and eye
[7] = 1% in prototype vehicle, bilateral topical four times a day, Day 6, per animal and eye
[8] = 1% in prototype vehicle, bilateral topical, once on Day 7, Day 7, per animal and eye
[9] = 1% in prototype vehicle, bilateral topical, (baseline), per animal and eye

For `CC(=O)NC(CS)C(=O)O` (centres unmarked) [NAC, N-acetylcysteine, reference compound], the “Daily Draize Scores for Chemosis, Day 1” value (rabbit eyes; [2]) was 0, the “Daily Draize Scores for Discharge, Day 1” value (rabbit eyes; [2]) was 0 and the “Daily Draize Scores for Hyperemia, Day 1” value (rabbit eyes; [2]) was 0. For the same compound, the “Daily Draize Scores for Chemosis, Day 2” value (rabbit eyes; [3]) was 0, the “Daily Draize Scores for Discharge, Day 2” value (rabbit eyes; [3]) was 0 (4×) and 0.5 (2×) and the “Daily Draize Scores for Hyperemia, Day 2” value (rabbit eyes; [3]) was 0 (4×) and 0.5 (2×). For the same compound, the “Daily Draize Scores for Chemosis, Day 3” value (rabbit eyes; [4]) was 0, the “Daily Draize Scores for Discharge, Day 3” value (rabbit eyes; [4]) was 0 and the “Daily Draize Scores for Hyperemia, Day 3” value (rabbit eyes; [4]) was 0 (3×) and 0.5 (3×). For the same compound, the “Daily Draize Scores for Chemosis, Day 4” value (rabbit eyes; [5]) was 0, the “Daily Draize Scores for Discharge, Day 4” value (rabbit eyes; [5]) was 0 (4×) and 1 and 0.5 and the “Daily Draize Scores for Hyperemia, Day 4” value (rabbit eyes; [5]) was 0. For the same compound, the “Daily Draize Scores for Chemosis, Day 5” value (rabbit eyes; [6]) was 0, the “Daily Draize Scores for Discharge, Day 5” value (rabbit eyes; [6]) was 0.5 and 0 (5×) and the “Daily Draize Scores for Hyperemia, Day 5” value (rabbit eyes; [6]) was 0. The “Daily Draize Scores for Chemosis, Day 6” value (rabbit eyes; [7]) was 0, the “Daily Draize Scores for Discharge, Day 6” value (rabbit eyes; [7]) was 0 (3×) and 1 (3×) and the “Daily Draize Scores for Hyperemia, Day 6” value (rabbit eyes; [7]) was 0. The “Daily Draize Scores for Chemosis, Day 7” value (rabbit eyes; [8]) was 0, the “Daily Draize Scores for Discharge, Day 7” value (rabbit eyes; [8]) was 0.5 (4×) and 1 and 0 and the “Daily Draize Scores for Hyperemia, Day 7” value (rabbit eyes; [8]) was 1 (3×) and 0.5 (3×). For the same compound, the “Daily Draize Scores for Chemosis, Day B” value (rabbit eyes; [9]) was 0, the “Daily Draize Scores for Discharge, Day B” value (rabbit eyes; [9]) was 0 and the “Daily Draize Scores for Hyperemia, Day B” value (rabbit eyes; [9]) was 0. For the same compound, the “ocular hyperemia, observation over the study” value (rabbit eyes; 1%, four times a day for 6 days, once on Day 7) was “mild hyperemia was observed at low frequencies” and the “time after administration at which no NAC is detectable” value [1] was 10 to 12 h.
